From PMC6382835, “A critical evaluation of TRPA1-mediated locomotor behavior in zebrafish as a screening tool for novel anti-nociceptive drug discovery” (Scientific Reports, 2019) come the findings set out here.

The structures appear in SMILES notation. Read-outs that look alike come from different tables or passages of the source.

The target in assay [1] is T1, zebrafish TRPA1a (zTRPA1a) (Danio rerio, UniProt Q5UM15).
T1 sequence (Q5UM15 1-1115): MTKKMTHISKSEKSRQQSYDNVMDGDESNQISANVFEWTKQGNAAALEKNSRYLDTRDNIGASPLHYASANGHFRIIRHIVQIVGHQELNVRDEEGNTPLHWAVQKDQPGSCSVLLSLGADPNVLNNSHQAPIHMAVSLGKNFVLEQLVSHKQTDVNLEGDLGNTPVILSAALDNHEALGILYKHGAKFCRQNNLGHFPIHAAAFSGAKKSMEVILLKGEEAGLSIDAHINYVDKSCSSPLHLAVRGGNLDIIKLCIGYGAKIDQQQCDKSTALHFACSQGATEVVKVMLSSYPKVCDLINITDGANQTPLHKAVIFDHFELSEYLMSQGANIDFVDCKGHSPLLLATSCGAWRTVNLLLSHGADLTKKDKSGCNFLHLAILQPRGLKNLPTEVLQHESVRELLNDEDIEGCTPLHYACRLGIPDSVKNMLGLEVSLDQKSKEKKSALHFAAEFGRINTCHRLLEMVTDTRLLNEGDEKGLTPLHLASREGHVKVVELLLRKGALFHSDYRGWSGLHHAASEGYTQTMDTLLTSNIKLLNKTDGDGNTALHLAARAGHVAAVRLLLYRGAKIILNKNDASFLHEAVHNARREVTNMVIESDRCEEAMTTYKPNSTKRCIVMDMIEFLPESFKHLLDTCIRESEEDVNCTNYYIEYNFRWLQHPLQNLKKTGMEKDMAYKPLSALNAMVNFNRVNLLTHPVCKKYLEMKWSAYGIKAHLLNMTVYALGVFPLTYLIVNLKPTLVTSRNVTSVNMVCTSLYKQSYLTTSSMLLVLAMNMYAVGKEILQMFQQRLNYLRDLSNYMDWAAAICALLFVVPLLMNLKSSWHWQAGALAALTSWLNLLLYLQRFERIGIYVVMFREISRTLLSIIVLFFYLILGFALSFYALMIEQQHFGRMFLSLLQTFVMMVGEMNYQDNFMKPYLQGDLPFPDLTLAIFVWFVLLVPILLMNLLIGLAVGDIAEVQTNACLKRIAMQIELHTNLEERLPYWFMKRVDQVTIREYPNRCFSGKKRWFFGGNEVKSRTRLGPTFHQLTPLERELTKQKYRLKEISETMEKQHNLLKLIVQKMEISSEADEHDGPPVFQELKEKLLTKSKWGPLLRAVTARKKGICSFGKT
Kind of assay: FLIPR calcium signaling assay in zTRPA1a-transfected HEK293 cells. Format: cell-based. The method, then:
The cells were maintained in a 37 °C incubator with consistent 5% CO2. […] Experiments were carried out with the approval of the Institutional Biohazard Committee (#13-013-16).
Twenty-five µl calcium sensitive Fluorescent Imaging Plate Reader (FLIPR) Calcium 6 assay dye (#R8190, Molecular Devices, CA, USA) was added to each well of a 384-well plate containing HEK293 cells transiently expressing mTRPA1, zTRPA1a, and zTRPA1b, respectively. The cells were incubated for an hour prior to the recording of intracellular calcium levels in a FlexStation3 Multi-Mode Microplate Reader (#R8190, Molecular Devices) as previously described. […] During the assay, the cells were challenged by a 5x ASP7663 solution or 1% DMSO solution at the 20 seconds time point, and both solutions were diluted in calcium buffer. Relative fluorescence units (RFU) were measured for 120 seconds period by the Flexstation. […] For each specific antagonist concentration we plotted Log(dose ratio-1) against the antagonist concentration in a Schild plot. The dose ratio (A’/A) equals the EC50 of the agonist (ASP7665) in the presence of a concentration of the antagonist (A’) divided by the EC50 of the agonist in the absence of antagonist (A). The x-intercept of the Schild plot was used to identify the antagonist-receptor affinity (pA2).
All data are presented as means ± standard error of the mean (SEM). For our in vitro statistical analysis, AUC of calcium influx (RFU) was measured to plot dose-response curves, which were further analyzed by nonlinear regression analysis. Mean RFU of the first 10 seconds was used as a baseline of the AUC. EC50 values of the dose-response curves were further used to plot Schild curves, and the curves were analyzed with linear regression analysis. For the mice von Frey test, mechanical thresholds were analyzed with two-way ANOVA followed by a Bonferonni test for multiple comparison analysis. For the zebrafish behavior test, the data from the first five seconds following drug administration were excluded, as zebrafish displacement during that period was highly influenced by liquid dispensing. AUC of all curves were measured and analyzed by one-way ANOVA. The post-hoc analysis was conducted with the Tukey’s or Dunnett’s multiple comparisons unless it stated otherwise. […] For our time-course average displacement graph, we used 2nd degree polynomial smoothing for a better representation; however, we used data before smoothing for all statistical analysis and quantification. All in vitro and in vivo data were evaluated using GraphPad Prism 7 (GraphPad Software, La Jolla, CA) unless it stated otherwise.

The subject of assay [2] is non-transfected HEK293 cells. Kind of assay: FLIPR calcium signaling assay in non-transfected HEK293 cells (off-target effect). The class given is cell-based.
Setting [3] is: agonist calcium influx, zTRPA1a-transfected HEK293, read-out: EC50 (potency in µM).

Consider `CC(C)c1ccc(NC(=O)Cn2cnc3c2c(=O)n(C)c(=O)n3C)cc1` [HC-030031], for which the “calcium influx by antagonist alone” value was “could produce an influx of intracellular calcium” in assay [1] (316 µM, zTRPA1a-transfected cells) and “did not observe any calcium influx” in assay [2]. Moreover, the “pEC50 (weak agonist activity)” value in assay [1] (HC030031 alone, zTRPA1a-transfected HEK293, Supplemental Fig. 6) is 2.85 ± 0.19. Besides, the “pA2 expressed in µM” value in assay [1] (Schild plot against ASP7663-mediated calcium influx, zTRPA1a) is 26.8 µM. In assay [1] (Schild plot against ASP7663-mediated calcium influx, zTRPA1a, only two antagonist doses), the pA2 (usually a measure of antagonist potency on a negative log scale) worked out at 4.6 ± 0.2. The Schild slope in assay [1] (zTRPA1a, n = 3) amounted to 0.84 ± 0.22.
`CC(C)CN1C(=O)/C(=C/C(=O)O)c2cccc(F)c21` [ASP7663]: the “pEC50 (AITC given as EC50)” value in assay [1] (agonist calcium influx, AUC of RFU, zTRPA1a-transfected HEK293) is given as 3.9 ± 0.18. Moreover, the EC50 – broadly, the concentration needed to bring the measured effect to its halfway point – in assay [1] (setting [3]) was 118 µM; in assay [2] (read-out: EC50 (off-target calcium response)) it was 54.1 µM. Moreover, the “pEC50 (off-target calcium response)” value in assay [2] was 4.27 ± 0.03.
For `C=CCN=C=S` [AITC, allyl isothiocyanate], the 50% effective concentration (EC50) in assay [1] (agonist calcium influx, AUC of RFU, zTRPA1a-transfected HEK293, read-out: pEC50 (AITC given as EC50) (converted)) was 25.1 µM; in assay [1] (setting [3]) it was 26.6 µM.
